Earlier results on six substances are cited in article PMC3433420 (PLoS ONE, 2012).

Broadly, the Kd is the free concentration of one partner at which half of the binding sites on the other are occupied at equilibrium, for simple one-to-one binding.

Like-named read-outs stand apart in the source and are kept apart here.

The target of the series is SH2 and PTB domains. The note with it: cited from earlier work. An excerpt:
Supplement pone.0044471.s022.xlsx, sheet "Most recent PM interactions" | column: Kd || Supplement pone.0044471.s022.xlsx, sheet "All original PM interactions" | column: Kd

Where [1] appears, read: protein ABL2, ref Jones et al. 2006 / Kaushansky et al. Mol Biosys 2008 / Kaushansky et al. Chem and Biol 2008.
The mark [2] stands for this setting: protein BLK, ref Jones et al. 2006 / Kaushansky et al. Mol Biosys 2008 / Kaushansky et al. Chem and Biol 2008.
The mark [3] stands for this setting: protein RASA1-N, ref Jones et al. 2006 / Kaushansky et al. Mol Biosys 2008 / Kaushansky et al. Chem and Biol 2008.
Setting [4] is: protein SYK-NC, ref Jones et al. 2006 / Kaushansky et al. Mol Biosys 2008 / Kaushansky et al. Chem and Biol 2008.
The mark [5] stands for this setting: protein YES1, ref Jones et al. 2006 / Kaushansky et al. Mol Biosys 2008 / Kaushansky et al. Chem and Biol 2008.
Where [6] appears, read: Protein ABL2, original PM interactions, ref Jones et al. 2006 / Kaushansky et al. Chem and Biol 2008.
The mark [7] stands for this setting: Protein PIK3R3-NC, original PM interactions, ref Jones et al. 2006 / Kaushansky et al. Chem and Biol 2008.
Where [8] appears, read: Protein SHC1-PTB, original PM interactions, ref Jones et al. 2006 / Kaushansky et al. Chem and Biol 2008.
Where [9] appears, read: Protein RASA1-N, original PM interactions, ref Jones et al. 2006 / Kaushansky et al. Chem and Biol 2008.

Turning to “DSNFpYRALMDEEd [ErbB1 pY998, N-terminally rhodamine-labeled 13-mer phosphopeptide]”, the Kd is 2000 nM under setting [1]; 190 nM under setting [2]; 1230 nM (protein FES, ref Jones et al. 2006 / Kaushansky et al. Mol Biosys 2008 / Kaushansky et al. Chem and Biol 2008); 2000 nM (protein GRB10, ref Jones et al. 2006 / Kaushansky et al. Mol Biosys 2008 / Kaushansky et al. Chem and Biol 2008); 280 nM (protein ITK, ref Jones et al. 2006 / Kaushansky et al. Mol Biosys 2008 / Kaushansky et al. Chem and Biol 2008); 2000 nM (protein LCK, ref Jones et al. 2006 / Kaushansky et al. Mol Biosys 2008 / Kaushansky et al. Chem and Biol 2008). In addition, the Kd was 240 nM (protein PIK3R1-NC, ref Jones et al. 2006 / Kaushansky et al. Mol Biosys 2008 / Kaushansky et al. Chem and Biol 2008); 970 nM (protein PIK3R3-NC, ref Jones et al. 2006 / Kaushansky et al. Mol Biosys 2008 / Kaushansky et al. Chem and Biol 2008); 2000 nM (protein PTPN6-NC, ref Jones et al. 2006 / Kaushansky et al. Mol Biosys 2008 / Kaushansky et al. Chem and Biol 2008); 1060 nM under setting [3]; 1380 nM (protein RASA1-NC, ref Jones et al. 2006 / Kaushansky et al. Mol Biosys 2008 / Kaushansky et al. Chem and Biol 2008); 1360 nM (protein SH2B3, ref Jones et al. 2006 / Kaushansky et al. Mol Biosys 2008 / Kaushansky et al. Chem and Biol 2008). Also, the Kd by setting is: (protein SH2B, ref Jones et al. 2006 / Kaushansky et al. Mol Biosys 2008 / Kaushansky et al. Chem and Biol 2008) 2000 nM; (protein SH2D2A, ref Jones et al. 2006 / Kaushansky et al. Mol Biosys 2008 / Kaushansky et al. Chem and Biol 2008) 2000 nM; (protein SH2D3C, ref Jones et al. 2006 / Kaushansky et al. Mol Biosys 2008 / Kaushansky et al. Chem and Biol 2008) 2000 nM; (protein SHC1-PTB, ref Jones et al. 2006 / Kaushansky et al. Mol Biosys 2008 / Kaushansky et al. Chem and Biol 2008) 1150 nM; (protein SHC2-PTB, ref Jones et al. 2006 / Kaushansky et al. Mol Biosys 2008 / Kaushansky et al. Chem and Biol 2008) 980 nM; (protein SLA, ref Jones et al. 2006 / Kaushansky et al. Mol Biosys 2008 / Kaushansky et al. Chem and Biol 2008) 1600 nM. Moreover, the dissociation constant (Kd) reads like this: (protein SOCS1, ref Jones et al. 2006 / Kaushansky et al. Mol Biosys 2008 / Kaushansky et al. Chem and Biol 2008) 2000 nM; (protein SOCS2, ref Jones et al. 2006 / Kaushansky et al. Mol Biosys 2008 / Kaushansky et al. Chem and Biol 2008) 2000 nM; (protein SRC, ref Jones et al. 2006 / Kaushansky et al. Mol Biosys 2008 / Kaushansky et al. Chem and Biol 2008) 1140 nM; under setting [4], 910 nM; (protein TNS4, ref Jones et al. 2006 / Kaushansky et al. Mol Biosys 2008 / Kaushansky et al. Chem and Biol 2008) 2000 nM; under setting [5], 720 nM. Moreover, under “protein ZAP70-NC, ref Jones et al. 2006 / Kaushansky et al. Mol Biosys 2008 / Kaushansky et al. Chem and Biol 2008”, the Kd was 1650 nM.
For “PSSGpYMPMNQGNd [ErbB3 pY1054, N-terminally rhodamine-labeled 13-mer phosphopeptide]”, the equilibrium dissociation constant (Kd) is 170 nM under setting [6]; 1670 nM (Protein ITK, original PM interactions, ref Jones et al. 2006 / Kaushansky et al. Chem and Biol 2008); 1000 nM (Protein PIK3R1-C, original PM interactions, ref Jones et al. 2006 / Kaushansky et al. Chem and Biol 2008); 570 nM (Protein PIK3R1-N, original PM interactions, ref Jones et al. 2006 / Kaushansky et al. Chem and Biol 2008); 110 nM (Protein PIK3R1-NC, original PM interactions, ref Jones et al. 2006 / Kaushansky et al. Chem and Biol 2008); 1000 nM (Protein PIK3R2-N, original PM interactions, ref Jones et al. 2006 / Kaushansky et al. Chem and Biol 2008). The dissociation constant Kd was 90 nM (Protein PIK3R2-NC, original PM interactions, ref Jones et al. 2006 / Kaushansky et al. Chem and Biol 2008); 110 nM (Protein PIK3R3-C, original PM interactions, ref Jones et al. 2006 / Kaushansky et al. Chem and Biol 2008); 1000 nM (Protein PIK3R3-N, original PM interactions, ref Jones et al. 2006 / Kaushansky et al. Chem and Biol 2008); 50 nM under setting [7]; 1370 nM (Protein SHB, original PM interactions, ref Jones et al. 2006 / Kaushansky et al. Chem and Biol 2008); 2000 nM under setting [8]. In addition, the dissociation constant (Kd) by setting is: (Protein SHF, original PM interactions, ref Jones et al. 2006 / Kaushansky et al. Chem and Biol 2008) 1230 nM; (Protein SYK-C, original PM interactions, ref Jones et al. 2006 / Kaushansky et al. Chem and Biol 2008) 1180 nM.
As to “LGYEpYMDVGSDLd [ErbB3 pY1224, N-terminally rhodamine-labeled 13-mer phosphopeptide]”, the Kd (Protein PLCG2-NC, original PM interactions, ref Jones et al. 2006 / Kaushansky et al. Chem and Biol 2008) is 2000 nM; the dissociation constant (Kd) under setting [9] is 2000 nM; the equilibrium dissociation constant (Kd) (Protein RASA1-NC, original PM interactions, ref Jones et al. 2006 / Kaushansky et al. Chem and Biol 2008) was 2000 nM; the Kd (Protein SLA, original PM interactions, ref Jones et al. 2006 / Kaushansky et al. Chem and Biol 2008) was 2000 nM; the Kd (protein ABL2, ref Jones et al. 2006 / Kaushansky et al. Chem and Biol 2008) was 1130 nM; the Kd (protein PIK3R3-NC, ref Jones et al. 2006 / Kaushansky et al. Chem and Biol 2008) is 1510 nM.
For the substance “GSKPpYDGIPASEd [ErbB1 pY915, N-terminally rhodamine-labeled 13-mer phosphopeptide]”, the equilibrium dissociation constant (Kd) by setting is: under setting [1], 140 nM; under setting [2], 1180 nM; under setting [3], 1470 nM; (protein SHB, ref Jones et al. 2006 / Kaushansky et al. Mol Biosys 2008 / Kaushansky et al. Chem and Biol 2008) 1060 nM; under setting [4], 1550 nM; under setting [5], 330 nM.
Consider LGSGAFGTVpYKGLWIPEd [ErbB1 727], for which the equilibrium dissociation constant (Kd) (Protein SRC, most recent PM interactions, ref Kaushansky et al. Mol Biosys 2008) was 580 nM and the Kd (Protein YES1, most recent PM interactions, ref Kaushansky et al. Mol Biosys 2008) is 540 nM.
With “KQLLpYSEAKTPId [ErbB3 pY868, N-terminally rhodamine-labeled 13-mer phosphopeptide]”, the dissociation constant (Kd) by setting is: under setting [6], 70 nM; (Protein BCAR3, original PM interactions, ref Jones et al. 2006 / Kaushansky et al. Chem and Biol 2008) 1780 nM; (Protein CRKL, original PM interactions, ref Jones et al. 2006 / Kaushansky et al. Chem and Biol 2008) 1760 nM; (Protein NCK2, original PM interactions, ref Jones et al. 2006 / Kaushansky et al. Chem and Biol 2008) 2000 nM; under setting [7], 2000 nM; under setting [9], 950 nM. Further, the dissociation constant Kd was 2000 nM under setting [8]; 920 nM (Protein SYK-NC, original PM interactions, ref Jones et al. 2006 / Kaushansky et al. Chem and Biol 2008).
